In patent publication US9051270B2, “Pyridone amides as modulators of sodium channels” (Vertex Pharmaceuticals Incorporated, priority 2013, dated 2015):

Tests used:
[1] = Microsomal stability assay, human liver microsomes (HLM); type: in vitro ADME; conditions: human liver microsomes 0.5 mg/mL, 1 uM substrate, 2 mM NADPH, 37° C., referenced against time zero control
Protocol: (§1) Microsomal Stability Assay.
(§2) Compounds were incubated at 37° C. and shaken for 30 minutes in a phosphate buffered solution with either rat or human liver microsomes and the cofactor NADPH. A time zero control was similarly prepared, however with NADPH excluded. The final incubation concentrations were 1 uM substrate (0.2% DMSO), 0.5 mg/mL liver microsome, 2 mM NADPH, and 0.1 M phosphate. Reactions were quenched and proteins precipitated with the addition of 2 volume equivalents of ice cold acetonitrile containing an internal standard. Following a centrifugation step, aliquots from the quenched incubations were further diluted with 4 volume equivalents of a 50% aqueous methanol solution and then subjected to LC/MS/MS analysis for quantitation of parent compound. Microsome stability values were calculated as the percent of substrate remaining after 30 minutes referenced against the time zero control.
(§3) Microsomal stability in rat and human liver microsomes were determined for selected compounds of the present invention using the above assay. Table 4 provides the human liver microsomes (“HLM”) and rat liver microsomes (“RLM”) stability data as the percent of compound remaining after 30 minutes referenced against the time zero control.

[2] = Microsomal stability assay, rat liver microsomes (RLM); type: in vitro ADME; conditions: rat liver microsomes 0.5 mg/mL, 1 uM substrate, 2 mM NADPH, 37° C., referenced against time zero control
Protocol: as §1, §2, §3

human Nav1.8 = human Nav1.8 (Homo sapiens (Human), UniProt Q9Y5Y9); assay: E-VIPR optical membrane potential assay with electrical stimulation; type: cell-based; conditions: HEK cells expressing human Nav1.8
Sequence of human Nav1.8 (Q9Y5Y9 whole entry): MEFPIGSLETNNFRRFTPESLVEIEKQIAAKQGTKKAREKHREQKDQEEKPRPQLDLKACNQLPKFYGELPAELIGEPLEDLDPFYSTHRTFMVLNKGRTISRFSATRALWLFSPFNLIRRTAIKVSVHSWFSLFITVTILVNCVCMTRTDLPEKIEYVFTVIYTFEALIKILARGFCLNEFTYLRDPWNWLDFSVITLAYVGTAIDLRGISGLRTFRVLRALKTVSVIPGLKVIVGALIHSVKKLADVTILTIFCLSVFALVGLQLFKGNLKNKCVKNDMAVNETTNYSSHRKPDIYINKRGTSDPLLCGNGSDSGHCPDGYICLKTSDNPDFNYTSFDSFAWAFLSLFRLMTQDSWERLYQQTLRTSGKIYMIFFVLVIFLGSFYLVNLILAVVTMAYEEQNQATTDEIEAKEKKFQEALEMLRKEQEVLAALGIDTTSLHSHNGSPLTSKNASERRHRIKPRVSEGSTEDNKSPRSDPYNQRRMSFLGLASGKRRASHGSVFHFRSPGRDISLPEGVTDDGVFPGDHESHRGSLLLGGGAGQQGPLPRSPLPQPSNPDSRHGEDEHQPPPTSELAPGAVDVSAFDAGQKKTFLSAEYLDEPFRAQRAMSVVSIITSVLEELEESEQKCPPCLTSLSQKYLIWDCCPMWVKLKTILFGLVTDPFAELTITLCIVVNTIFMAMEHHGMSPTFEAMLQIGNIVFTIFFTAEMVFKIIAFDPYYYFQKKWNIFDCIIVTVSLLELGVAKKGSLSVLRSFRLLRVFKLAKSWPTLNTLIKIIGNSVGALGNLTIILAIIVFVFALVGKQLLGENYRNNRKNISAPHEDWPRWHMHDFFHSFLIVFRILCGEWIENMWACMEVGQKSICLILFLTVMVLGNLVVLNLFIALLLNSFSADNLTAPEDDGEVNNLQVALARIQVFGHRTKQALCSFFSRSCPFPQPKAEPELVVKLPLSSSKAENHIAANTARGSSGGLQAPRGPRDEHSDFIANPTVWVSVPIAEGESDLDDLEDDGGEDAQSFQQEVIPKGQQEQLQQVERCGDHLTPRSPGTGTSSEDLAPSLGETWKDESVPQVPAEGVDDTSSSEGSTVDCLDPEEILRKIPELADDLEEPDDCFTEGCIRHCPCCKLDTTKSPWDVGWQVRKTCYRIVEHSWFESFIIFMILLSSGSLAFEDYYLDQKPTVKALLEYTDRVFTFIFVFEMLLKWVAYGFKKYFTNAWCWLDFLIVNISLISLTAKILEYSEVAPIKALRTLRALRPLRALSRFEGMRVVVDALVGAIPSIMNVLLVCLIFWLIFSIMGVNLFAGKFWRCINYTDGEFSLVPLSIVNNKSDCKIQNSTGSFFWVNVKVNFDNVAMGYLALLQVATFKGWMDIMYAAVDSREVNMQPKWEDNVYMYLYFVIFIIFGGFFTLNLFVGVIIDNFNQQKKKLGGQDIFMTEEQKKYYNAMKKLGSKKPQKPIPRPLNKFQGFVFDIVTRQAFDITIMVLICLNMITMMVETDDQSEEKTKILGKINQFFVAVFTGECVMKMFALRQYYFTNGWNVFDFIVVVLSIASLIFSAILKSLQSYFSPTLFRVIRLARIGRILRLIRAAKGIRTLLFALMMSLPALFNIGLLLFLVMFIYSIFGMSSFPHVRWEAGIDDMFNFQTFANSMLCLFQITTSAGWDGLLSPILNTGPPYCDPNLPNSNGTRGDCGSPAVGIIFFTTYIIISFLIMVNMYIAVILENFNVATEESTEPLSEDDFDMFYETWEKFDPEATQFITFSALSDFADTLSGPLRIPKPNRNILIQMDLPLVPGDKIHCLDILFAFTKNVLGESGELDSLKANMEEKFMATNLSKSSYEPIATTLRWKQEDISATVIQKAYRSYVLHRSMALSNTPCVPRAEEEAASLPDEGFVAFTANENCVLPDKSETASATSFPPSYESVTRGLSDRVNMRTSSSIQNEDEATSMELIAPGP

| HLM (% remaining @ 30 minutes) [1] [%] | RLM (% remaining @ 30 minutes) [2] [%] | IC50 (human Nav1.8) [nM] | SMILES |
| --- | --- | --- | --- |
| 103 | 100 | 11 | O=C(Nc1cc[nH]c(=O)c1)c1ccc(C(F)(F)F)cc1Oc1ccc(OC(F)(F)F)cc1 [Compound 79, N-(2-oxo-1,2-dihydropyridin-4-yl)-2-(4-(trifluoromethoxy)phenoxy)-4-(trifluoromethyl)benzamide] |
| 101 | 98 | 36 | O=C(Nc1cc[nH]c(=O)c1)c1ccc(C(F)(F)F)cc1Oc1ccc(OC(F)F)cc1 [Compound 82, 2-(4-(difluoromethoxy)phenoxy)-N-(2-oxo-1,2-dihydropyridin-4-yl)-4-(trifluoromethyl)benzamide] |
| 100 | 102 | 12 | O=C(Nc1cc[nH]c(=O)c1)c1ccc(C(F)(F)C(F)(F)F)cc1Oc1ccc(F)cc1 [Compound 88, 2-(4-fluorophenoxy)-N-(2-oxo-1,2-dihydropyridin-4-yl)-4-(perfluoroethyl)benzamide] |
| 101 | 104 | 26 | O=C(Nc1cc[nH]c(=O)c1)c1cc(C(F)(F)F)ccc1Oc1ccc(F)c(F)c1F [Compound 90, N-(2-oxo-1,2-dihydropyridin-4-yl)-5-(trifluoromethyl)-2-(2,3,4-trifluorophenoxy)benzamide] |
| 97 | 89 | 120 | O=C(Nc1cc[nH]c(=O)c1)c1cc(F)ccc1Oc1ccc(OC(F)(F)F)cc1 [Compound 101, 5-fluoro-N-(2-oxo-1,2-dihydropyridin-4-yl)-2-(4-(trifluoromethoxy)phenoxy)benzamide] |
| 103 | 100 | 19 | O=C(Nc1cc[nH]c(=O)c1)c1cc(F)c(Cl)cc1Oc1ccc(F)cc1Cl [Compound 109, 4-chloro-2-(2-chloro-4-fluorophenoxy)-5-fluoro-N-(2-oxo-1,2-dihydropyridin-4-yl)benzamide] |
| 91 | 90 | 3 | COc1cc(F)ccc1Oc1cc(C(F)(F)C(F)(F)F)ccc1C(=O)Nc1cc[nH]c(=O)c1 [Compound 111, 2-(4-fluoro-2-methoxyphenoxy)-N-(2-oxo-1,2-dihydropyridin-4-yl)-4-(perfluoroethyl)benzamide] |
| 105 | 102 | 6 | O=C(Nc1cc[nH]c(=O)c1)c1cc(Cl)c(Cl)cc1Oc1ccc(F)cc1 [Compound 113, 4,5-dichloro-2-(4-fluorophenoxy)-N-(2-oxo-1,2-dihydropyridin-4-yl)benzamide] |
| 91 | 82 | 1 | COc1cc(F)ccc1Oc1cc(Cl)c(Cl)cc1C(=O)Nc1cc[nH]c(=O)c1 [Compound 114, 4,5-dichloro-2-(4-fluoro-2-methoxyphenoxy)-N-(2-oxo-1,2-dihydropyridin-4-yl)benzamide] |
| 102 | 95 | 7 | COc1ccc(Oc2cc(Cl)c(Cl)cc2C(=O)Nc2cc[nH]c(=O)c2)cc1F [Compound 115, 4,5-dichloro-2-(3-fluoro-4-methoxyphenoxy)-N-(2-oxo-1,2-dihydropyridin-4-yl)benzamide] |
| 87 | 79 | 150 | O=C(Nc1cc[nH]c(=O)c1)c1ccc(C(F)(F)F)cc1OCC1CCCC1 [Compound 120, 2-(cyclopentylmethoxy)-N-(2-oxo-1,2-dihydropyridin-4-yl)-4-(trifluoromethyl)benzamide] |
| 38 | 50 | 653 | CC(C)(C)c1ccc(C(=O)Nc2ccc(=O)[nH]c2)c(Oc2ccc(C(F)(F)F)nc2)c1 [Compound 142, 4-(tert-butyl)-N-(6-oxo-1,6-dihydropyridin-3-yl)-2-((6-(trifluoromethyl)pyridin-3-yl)oxy)benzamide] |
| 103 | 100 | 44 | O=C(Nc1cc[nH]c(=O)c1)c1c(Oc2ccc(F)cc2F)cc(C(F)(F)F)cc1C(F)(F)F [Compound 152, 2-(2,4-difluorophenoxy)-N-(2-oxo-1,2-dihydropyridin-4-yl)-4,6-bis(trifluoromethyl)benzamide] |
| 101.5 | 102 | 58 | O=C(Nc1cc[nH]c(=O)c1)c1ccc(C(F)(F)F)cc1Oc1ccc(F)cc1CO [Compound 157, 2-(4-fluoro-2-(hydroxymethyl)phenoxy)-N-(2-oxo-1,2-dihydropyridin-4-yl)-4-(trifluoromethyl)benzamide] |

| SMILES | HLM (% remaining @ 30 minutes) [1] [%] | RLM (% remaining @ 30 minutes) [2] [%] | IC50 (human Nav1.8) [nM] |
| --- | --- | --- | --- |
| O=C(Nc1cc[nH]c(=O)c1)c1ccc(C(F)(F)F)cc1OCCCC(F)(F)F [Compound 123, N-(2-oxo-1,2-dihydropyridin-4-yl)-2-(4,4,4-trifluorobutoxy)-4-(trifluoromethyl)benzamide] | 103 | 98 | 355 |
